Data on two compounds can be found in patent US12129229B2, “Amarouciaxanthin A esters and uses thereof” (GAT THERAPEUTICS, S.L., priority 2021, dated 2024).

The subject of series [1] is rodent models. The note with it: Biochem Biophys Res Commun, 2020, 528, 305-310; cited from earlier work.
Series [2] can be described thus: ACX-Ac oral kinetic assay: plasma levels after intragastric administration. The series is classed as in vivo, mice Hsd:ICR (CD-1). The note with it: female mice. The protocol: Immunocompetent mice from the strain Hsd:ICR (CD-1) (females, 6-7 weeks old from ENVIGO), were housed under sterile conditions at a constant temperature of 20-22° C. and relative humidity (45-65%) under daily cycles of light/darkness (12 hours). Sterilized water and food were available ad libitum.
Amarouciaxanthin A acetate (ACX-Ac) was dissolved at 1 mg/mL in a suitable vehicle and sterilized by filtration. Animals were weighted before the assay to determine the appropriate dispensing volume at 10 mL/kg. Formulation was administered once, intragastrically, at 10 mg/kg. Blood was collected at different time points, as stated in Table 1. It was extracted either through the facial vein or by intracardiac puncture (end points), on recipients containing 5 μL of 0.5 M EDTA.
Blood samples were analyzed by HPLC-MS/MS following proprietary analytical methods and the concentration of ACX in each sample was determined. A noncompartmental pharmacokinetic analysis was carried out using individual plasma concentrations versus sampling times by means of the PKPlus® software version 2.0 (Simulations Plus, Lancaster, CA 93534, USA).

In the case of `CC1=CC(=O)CC(C)(C)[C@@]1(O)CC(=O)/C(C)=C/C=C/C(C)=C/C=C/C=C(C)/C=C/C=C(\C)C=C=C1C(C)(C)C[C@H](O)C[C@@]1(C)O` [ACX, Amarouciaxanthin A], in series [1], the “effect on hepatic oxidative stress, inflammation, and fibrosis” value was “significantly inhibit hepatic oxidative stress, inflammation, and fibrosis”.
With Amarouciaxanthin A acetate [ACX-Ac], the “ACX-Ac in plasma samples” value in series [2] (ACX-Ac 10 mg/kg once intragastrically, HPLC-MS/MS, 2 min to 72 h) is “not detected”. The “area under the concentration-time curve (AUCt) of ACX” value in series [2] (analyte ACX after ACX-Ac 10 mg/kg once intragastrically, noncompartmental analysis) was determined as 80.59 µM·h. In series [2] (analyte ACX after ACX-Ac 10 mg/kg once intragastrically, noncompartmental analysis, read-out: maximum observed plasma concentration (Cmax) of ACX), the Cmax was 9.35 µM.
